Source: patent US20070014803A1, “METHODS AND COMPOSITIONS FOR DIAGNOSIS AND TREATMENT OF VIRAL AND BACTERIAL INFECTIONS” (Arbor Vita Corporation, priority 2005, published 2007)
Where no end group is shown, it is not given here.

What was measured:
Assay in all cases: PRISM Matrix ELISA G assay, peptide titration
Format in all cases: binding
PDZ protein NSP = molecular target: T1, PDZ protein NSP (Homo sapiens, UniProt Q92743); details: for binding to the PDZ protein NSP, in words: summary of the titrations
T1 construct: made in house
Procedure: (§1) (1) A PDZ-domain polypeptide is bound to a surface, e.g. a protein binding surface. In a preferred embodiment, a GST/PDZ fusion protein containing one or more PDZ domains is bound to a polystyrene 96-well plate. […] In one embodiment, the GST/PDZ fusion protein is bound via an anti-GST antibody that is coated onto the 96-well plate. Adequate binding to the plate can be achieved when: • a. 100 μL per well of 5 μg/mL goat anti-GST polyclonal antibody (Pierce) in PBS is added to a polystyrene 96-well plate (e.g., Nunc Polysorb) at 4° C. for 12 hours. • b. The plate is blocked by addition of 200 μL per well of PBS/BSA for 2 hours at 4° C. • c. The plate is washed 3 times with PBS. • d. 50 μL per well of 5 μg/mL GST/PDZ fusion protein) or, as a negative control, GST polypeptide alone (i.e. not a fusion protein) in PBS/BSA is added to the plate for 2 hours at 4° C. • e. the plate is again washed 3 times with PBS.
(§2) (2) Biotinylated PL peptides are allowed to react with the surface by addition of 50 μL per well of 20 μM solution of the biotinylated peptide in PBS/BSA for 10 minutes at 4° C., followed by an additional 20 minute incubation at 25° C. The plate is washed 3 times with ice cold PBS.
(§3) (3) The binding of the biotinylated peptide to the GST/PDZ fusion protein surface can be detected using a variety of methods and detectors. In an exemplary procedure, 100 μL per well of 0.5 μg/mL streptavidin-horse radish peroxidase (HRP) conjugate dissolved in BSA/PBS is added and allowed to react for 20 minutes at 4° C. The plate is then washed 5 times with 50 mM Tris pH 8.0 containing 0.2% Tween 20, and developed by addition of 100 μL per well of HRP-substrate solution (TMB, Dako) for 20 minutes at room temperature (RT). The reaction of the HRP and its substrate is terminated by addition of 100 μL per well of 1 M sulfuric acid, and the optical density (O.D.) of each well of the plate is read at […].
(§4) (4) Specific binding of a PL peptide and a PDZ domain polypeptide is determined by comparing the signal from the well(s) in which the PL peptide and PDZ domain polypeptide are combined, with the background signal(s). The background signal is the signal found in the negative control(s). Typically a specific or selective reaction is at least twice background signal, more typically more than 5 times background, and most typically 10 or more times the background signal. In addition, a statistically significant reaction involves multiple measurements of the reaction with the signal and the background differing by at least two standard errors, more typically four standard errors, and most typically six or more standard errors. Correspondingly, a statistical test (e.g. a T-test) comparing repeated measurements of the signal with -repeated measurements of the background will result in a p-value <0.05, more typically a p-value <0.01, and most typically a p-value <0.001 or less. As noted, in an embodiment of the “G” assay, the signal from binding of a given PL peptide to immobilized (surface bound) GST polypeptide alone is one suitable negative control (sometimes referred to as “B 1”). Because all measurement are done in multiples (i.e. at least duplicate) the arithmetic mean (or, equivalently, average) of several measurements is used in determining the binding, and the standard error of the mean is used in determining the probable error in the measurement of the binding. The standard error of the mean of N measurements equals the square root of the following: the sum of the squares of the difference between each measurement and the mean, divided by the product of (N) and (N−1). Thus, in one embodiment, specific binding of the PDZ protein to the platebound peptide is determined by comparing the mean signal (“mean S”) and standard error of the signal (“SE”) for a particular PL-PDZ combination with the mean B I.
(§5) Two different types of ELISA assays were used to test the HIV Peptides 1904 and 1905. […]

[1] = molecular target: T2, PDZ protein ZO-1 d2 (domain 2) (Homo sapiens, UniProt Q07157, DEL264-264); details: for EC50: read-out: EC50 of binding to the PDZ protein ZO-1 d2, regular G assay titration, GST/PDZ fusion (FIG. 1B, FIG. 4B); for binding to the PDZ protein ZO-1 d2, in words: summary of the titrations
T2 construct: made in house
T2 sequence (Q07157 with tags, fused parts or gaps DEL264-264): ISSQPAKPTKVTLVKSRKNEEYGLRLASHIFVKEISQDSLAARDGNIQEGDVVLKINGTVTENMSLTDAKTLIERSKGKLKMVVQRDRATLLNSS
Procedure: as §1, §2, §3, §4, §5

PDZ protein Rim2 = molecular target: T3, PDZ protein Rim2 (Homo sapiens, UniProt Q9UQ26); details: for EC50: read-out: EC50 of binding to the PDZ protein Rim2, regular G assay titration, GST/PDZ fusion (FIG. 1C, FIG. 4C); for binding to the PDZ protein Rim2, in words: summary of the titrations
T3 construct: made in house
T3 sequence (Q9UQ26 632-757): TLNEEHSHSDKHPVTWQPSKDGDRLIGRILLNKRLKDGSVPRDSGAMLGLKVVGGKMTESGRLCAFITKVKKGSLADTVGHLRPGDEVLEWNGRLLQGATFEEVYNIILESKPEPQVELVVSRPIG
Procedure: as §1, §2, §3, §4, §5

T1 sequence (Q92743 359-473): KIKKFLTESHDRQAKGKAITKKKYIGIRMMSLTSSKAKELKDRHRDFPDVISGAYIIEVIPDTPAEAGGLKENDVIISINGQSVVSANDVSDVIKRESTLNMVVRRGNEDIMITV

YGRKKRRQRRRRQGLERILL-OH [Peptide 1904]
binding to the PDZ protein NSP, in words (PDZ protein NSP): strong binding | EC50 [1]: 170 nM | binding to the PDZ protein ZO-1 d2, in words [1]: strong binding | EC50 (PDZ protein Rim2): 410 nM | binding to the PDZ protein Rim2, in words (PDZ protein Rim2): strong binding

YGRKKRRQRRRRQGFERALL-OH [Peptide 1905]
EC50 (PDZ protein NSP; read-out: EC50 of binding to the PDZ protein NSP, regular G assay titration, GST/PDZ fusion (FIG. 1D, FIG. 4D)): 166 nM | binding to the PDZ protein NSP, in words (PDZ protein NSP): strong binding | EC50 [1]: 184 nM | binding to the PDZ protein ZO-1 d2, in words [1]: strong binding | EC50 (PDZ protein Rim2): 182 nM | binding to the PDZ protein Rim2, in words (PDZ protein Rim2): strong binding
